ChEMBL document CHEMBL3763049, “Discovery of aminoquinazoline derivatives as human A(2A) adenosine receptor antagonists” (Bioorg Med Chem Lett, 2016)
Converted amounts (≈) assume the structure as drawn.

Assays:
Adenosine receptor A1 = biological target: T1, Adenosine receptor A1 (Homo sapiens, UniProt P30542); experiment: Displacement of [3H]DPCPX from human adenosine A1 receptor expressed in CHO cell membranes after 60 mins by microplate scintillation counting analysis
T1 sequence (P30542 whole entry): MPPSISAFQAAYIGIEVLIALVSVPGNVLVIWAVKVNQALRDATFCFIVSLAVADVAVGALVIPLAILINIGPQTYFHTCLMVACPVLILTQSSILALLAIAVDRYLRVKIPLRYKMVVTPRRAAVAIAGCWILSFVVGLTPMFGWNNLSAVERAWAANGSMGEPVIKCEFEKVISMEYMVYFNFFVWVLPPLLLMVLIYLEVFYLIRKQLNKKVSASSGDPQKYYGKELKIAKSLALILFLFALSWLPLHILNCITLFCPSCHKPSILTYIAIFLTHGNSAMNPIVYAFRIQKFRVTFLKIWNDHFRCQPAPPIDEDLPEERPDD

Adenosine receptor A2a [1] = biological target: Adenosine receptor A2a (Homo sapiens, UniProt P29274); experiment: Displacement of [3H]SCH-58261 from human adenosine A2A receptor expressed in HEK cell membranes after 60 mins by microplate scintillation counting analysis; parameters: species or system HEK293
Adenosine receptor A2a [2] = biological target: Adenosine receptor A2a (Rattus norvegicus, UniProt P30543); experiment: Binding affinity to rat A2A adenosine receptor
Rattus norvegicus [3] = experiment: Anti-cataleptic activity in Sprague-Dawley rat assessed as inhibition of haloperidol-induced catalepsy at 30 mg/kg, po administered for 1 hr; format: functional
[4] = AUC in haloperidol-induced Sprague-Dawley rat cataleptic model at 30 mg/kg, po administered for 1 hr; format: ADME, organism-based; details: in vivo
Rattus norvegicus [5] = experiment: Anti-cataleptic activity in Sprague-Dawley rat assessed as inhibition of haloperidol-induced catalepsy at 10 mg/kg, po administered for 1 hr; format: functional
[6] = AUC in haloperidol-induced Sprague-Dawley rat cataleptic model at 10 mg/kg, po administered for 1 hr; format: ADME, organism-based; details: in vivo
[7] = Solubility of compound at pH 7; format: physicochemical; details: buffer
[8] = Permeability of the compound; format: ADME; details: not told; read-out: permeability
[9] = Clearance in rat hepatocytes assessed per million cells; format: ADME, cell-based, Hepatocyte; details: read-out: CLH
[10] = Clearance in human hepatocytes assessed per million cells; format: ADME, cell-based, Hepatocyte; details: read-out: CLH
Cytochrome P450 3A4 [11] = biological target: T2, Cytochrome P450 3A4 (Homo sapiens, UniProt P08684); experiment: Time dependent inhibition of CYP3A4 (unknown origin) at 30 uM relative to control; format: ADME
[12] = Plasma protein binding in rat; format: ADME, cell-free; details: read-out: PPB (converted)
[13] = Plasma concentration in haloperidol-induced Sprague-Dawley rat cataleptic model after 1 hr; format: ADME
Adenosine receptor A2b = biological target: T3, Adenosine receptor A2b (Homo sapiens, UniProt P29275); experiment: Binding affinity to human adenosine A2B receptor
T3 sequence (P29275 whole entry): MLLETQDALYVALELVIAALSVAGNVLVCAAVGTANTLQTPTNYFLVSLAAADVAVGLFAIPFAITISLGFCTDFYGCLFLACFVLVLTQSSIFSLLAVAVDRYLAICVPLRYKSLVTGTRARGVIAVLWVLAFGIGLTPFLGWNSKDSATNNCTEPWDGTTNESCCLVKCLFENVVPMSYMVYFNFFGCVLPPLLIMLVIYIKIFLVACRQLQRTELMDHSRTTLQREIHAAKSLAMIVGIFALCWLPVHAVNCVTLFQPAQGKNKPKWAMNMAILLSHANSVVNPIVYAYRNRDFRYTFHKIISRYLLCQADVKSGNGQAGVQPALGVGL

[14] = Drug uptake in brain of haloperidol-induced Sprague-Dawley rat cataleptic model after 1 hr; format: ADME, tissue-based; details: read-out: Drug uptake
Adenosine receptor A3 = biological target: T4, Adenosine receptor A3 (Homo sapiens, UniProt P0DMS8); experiment: Binding affinity to human adenosine A3 receptor
T4 sequence (P0DMS8 whole entry): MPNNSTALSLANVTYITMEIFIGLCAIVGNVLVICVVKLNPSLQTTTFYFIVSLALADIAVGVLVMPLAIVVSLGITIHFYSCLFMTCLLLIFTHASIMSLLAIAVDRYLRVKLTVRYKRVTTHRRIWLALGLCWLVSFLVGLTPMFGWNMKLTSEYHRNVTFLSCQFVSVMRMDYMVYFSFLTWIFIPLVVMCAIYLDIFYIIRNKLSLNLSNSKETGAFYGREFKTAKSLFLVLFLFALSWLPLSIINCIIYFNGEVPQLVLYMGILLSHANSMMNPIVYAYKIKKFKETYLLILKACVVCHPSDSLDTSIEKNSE

[15] = Half life in haloperidol-induced Sprague-Dawley rat cataleptic model at 1 to 30 mg/kg, po administered for 1 to 4 hrs; format: ADME, organism-based; details: in vivo
[16] = Plasma protein binding in human; format: ADME, cell-free; details: read-out: PPB (converted)
Cytochrome P450 3A4 [17] = biological target: T2, Cytochrome P450 3A4; experiment: Time dependent inhibition of CYP3A4 (unknown origin); format: ADME
Rattus norvegicus [18] = experiment: Anti-cataleptic activity in Sprague-Dawley rat assessed as inhibition of haloperidol-induced catalepsy at 1 mg/kg, po administered for 1 hr; format: functional

Adenosine receptor A2a (Homo sapiens, UniProt P29274), sequence (P29274 whole entry): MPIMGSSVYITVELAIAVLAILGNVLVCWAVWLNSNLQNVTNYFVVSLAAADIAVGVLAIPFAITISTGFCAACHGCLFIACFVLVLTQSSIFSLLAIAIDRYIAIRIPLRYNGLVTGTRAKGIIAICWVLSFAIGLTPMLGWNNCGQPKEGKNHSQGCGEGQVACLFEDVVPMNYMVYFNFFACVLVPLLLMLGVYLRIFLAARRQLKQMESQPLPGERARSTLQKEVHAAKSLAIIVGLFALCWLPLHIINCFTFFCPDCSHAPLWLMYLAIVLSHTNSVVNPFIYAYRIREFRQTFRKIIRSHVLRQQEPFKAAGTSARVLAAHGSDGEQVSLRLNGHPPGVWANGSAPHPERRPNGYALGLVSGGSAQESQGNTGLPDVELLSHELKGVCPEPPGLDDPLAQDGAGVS
Adenosine receptor A2a (Rattus norvegicus, UniProt P30543), sequence (P30543 whole entry): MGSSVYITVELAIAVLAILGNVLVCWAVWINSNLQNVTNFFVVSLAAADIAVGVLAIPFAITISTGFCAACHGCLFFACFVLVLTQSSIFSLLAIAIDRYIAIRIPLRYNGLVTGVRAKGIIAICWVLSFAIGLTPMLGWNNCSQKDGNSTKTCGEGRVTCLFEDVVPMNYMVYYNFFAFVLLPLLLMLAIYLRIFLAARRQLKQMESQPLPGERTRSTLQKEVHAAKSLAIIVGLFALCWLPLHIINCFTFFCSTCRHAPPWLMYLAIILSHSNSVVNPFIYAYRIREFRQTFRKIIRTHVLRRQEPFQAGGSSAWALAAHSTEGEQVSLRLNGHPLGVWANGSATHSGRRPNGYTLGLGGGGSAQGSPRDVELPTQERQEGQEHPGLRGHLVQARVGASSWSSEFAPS
T2 sequence (P08684 whole entry): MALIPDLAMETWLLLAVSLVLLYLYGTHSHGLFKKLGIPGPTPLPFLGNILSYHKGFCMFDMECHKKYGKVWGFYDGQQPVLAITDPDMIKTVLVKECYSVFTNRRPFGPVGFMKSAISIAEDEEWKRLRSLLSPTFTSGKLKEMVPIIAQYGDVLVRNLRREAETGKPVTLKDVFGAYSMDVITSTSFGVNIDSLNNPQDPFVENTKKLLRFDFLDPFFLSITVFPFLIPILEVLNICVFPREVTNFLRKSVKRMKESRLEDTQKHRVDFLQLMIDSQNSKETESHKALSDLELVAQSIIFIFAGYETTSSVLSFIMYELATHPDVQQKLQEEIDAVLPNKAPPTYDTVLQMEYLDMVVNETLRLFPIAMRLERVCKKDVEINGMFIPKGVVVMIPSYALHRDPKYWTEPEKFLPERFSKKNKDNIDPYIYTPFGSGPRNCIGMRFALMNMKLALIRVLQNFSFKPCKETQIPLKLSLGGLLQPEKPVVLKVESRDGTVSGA

Row | SMILES | Ki (Adenosine receptor A1) [nM] | Ki (Adenosine receptor A2a [1]) [nM] | also measured
1 | C[C@H](NC(=O)c1nc(N)nc2c(F)cccc12)c1cccc2cccnc12 | 524 | 126 | 
2 | Nc1nc(C(=O)NCc2ccc3ccccc3n2)c2cccc(F)c2n1 | 78 | 15 | 
3 | Cn1nccc1-c1cccc2c(C(=O)NCc3cccc4cccnc34)nc(N)nc12 | 6040 | 1040 | 
4 | Nc1nc(C(=O)NCc2cccc3cc(C(=O)N4CCN(c5ccccn5)CC4)cnc23)c2cccc(F)c2n1 | 110 | 2.7 | Ki (Adenosine receptor A2a [2]; read-out: Ki): 12.5 nM
5 | CCCCOc1ccnc2c(CNC(=O)c3nc(N)nc4c(F)cccc34)cccc12 | 748 | 245 | Ki (Adenosine receptor A2a [2]): Not Active
6 | CSc1cccc2c(C(=O)NCc3cccc4cccnc34)nc(N)nc12 | 132 |  | inhibition in vivo at 30 mg/kg (Rattus norvegicus [3]): 0%; AUC at 1 h [4]: 8.9 µM·h; Ki (Adenosine receptor A2a [2]; read-out: Ki): 12 nM
7 | Nc1nc(C(=O)NCc2cccc3c2OCCN3)c2cccc(F)c2n1 | 135 | 21.5 | 
8 | Nc1nc(C(=O)NCc2cccc3cccnc23)c2cccc(-c3cncnc3)c2n1 | 6300 | 160 | 
9 | Nc1nc(C(=O)NCc2cccc3cccnc23)c2cccc(C(F)(F)F)c2n1 | 1300 |  | inhibition in vivo at 30 mg/kg (Rattus norvegicus [3]): 0%; Ki (Adenosine receptor A2a [2]; read-out: Ki): 57 nM
10 | Nc1nc(C(=O)NCc2cccc3cccnc23)c2ccc(F)cc2n1 | 31 | 0.3 | inhibition in vivo at 10 mg/kg (Rattus norvegicus [5]): 39%; AUC at 1 h [6]: 2.3 µM·h; Ki (Adenosine receptor A2a [2]; read-out: Ki): 4.8 nM
11 | CCOc1ccnc2c(CNC(=O)c3nc(N)nc4c(F)cccc34)cccc12 | 252 | 73.2 | 
12 | Nc1nc(C(=O)NCc2cccc3cccnc23)c2cc(F)c(F)cc2n1 | 40 | 3.6 | 
13 | C[C@@H](NC(=O)c1nc(N)nc2c(F)cccc12)c1cccc2cccnc12 | 57 |  | 
14 | Cc1ccccc1CNC(=O)c1nc(N)nc2c(F)cccc12 | 116 | 13.6 | 
15 | Nc1nc(C(=O)NCc2cncc3ccccc23)c2cccc(F)c2n1 | 78 | 26.7 | 
16 | Nc1cc(C(=O)NCc2cccc3cccnc23)c2ccccc2n1 | 17600 | 836 | solubility [7]: 19 µM (≈ 6.24 µg/mL)
17 | Cc1cccc(CNC(=O)c2nc(N)nc3c(F)cccc23)c1 | 112 | 8.4 | 
18 | Nc1nc(C(=O)NCc2cccc3cccnc23)c2cc(Cl)cc(Cl)c2n1 | 50 | 6.6 | 
19 | CS(=O)(=O)c1cccc2c(C(=O)NCc3cccc4cccnc34)nc(N)nc12 | 4740 |  | Ki (Adenosine receptor A2a [2]; read-out: Ki): 302 nM
20 | Nc1nc(C(=O)NCCc2ccccc2)c2cccc(F)c2n1 | 559 | 160 | 
21 | Nc1nc(C(=O)NCc2cccc3cc[nH]c23)c2cccc(F)c2n1 | 54 | 8.2 | 
22 | Nc1nc(C(=O)NCc2ccccc2)c2cccc(F)c2n1 | 83 | 5.4 | 
23 | Nc1nc(C(=O)NCC2CCCCC2)c2cccc(F)c2n1 | 170 | 45 | 
24 | Nc1nc(C(=O)NCc2cccc3cc(C(=O)NCCCCCc4ccccc4)cnc23)c2cccc(F)c2n1 | 160 | 6.9 | 

Row | SMILES | Ki (Adenosine receptor A1) [nM] | Ki (Adenosine receptor A2a [1]) [nM] | also measured
25 | Nc1nc(C(=O)NCc2cccc3c2C(=O)NC3)c2cccc(F)c2n1 | 5.4 | 1.8 | 
26 | Nc1nc(C(=O)NCc2cccc3cccnc23)c2cccc(I)c2n1 | 33 | 3.1 | inhibition in vivo at 10 mg/kg (Rattus norvegicus [5]): 23%; AUC at 1 h [6]: 1.3 µM·h
27 | COc1cccc2c(C(=O)NCc3cccc4cccnc34)nc(N)nc12 | 6 |  | inhibition in vivo at 30 mg/kg (Rattus norvegicus [3]): 31%; AUC at 1 h [4]: 0.8 µM·h; Ki (Adenosine receptor A2a [2]; read-out: Ki): 0.6 nM
28 | CN(CCCc1ccccn1)C(=O)c1cnc2c(CNC(=O)c3nc(N)nc4c(F)cccc34)cccc2c1 | 210 | 12 | 
29 | CCn1cnc2c(CNC(=O)c3nc(N)nc4c(F)cccc34)cccc21 | 24 | 3.1 | 
30 | COc1ccnc2c(CNC(=O)c3nc(N)nc4c(F)cccc34)cccc12 | 69 | 15.2 | Ki (Adenosine receptor A2a [2]; read-out: Ki): 1.3 nM
31 | Nc1nc(C(=O)NCc2cccc3[nH]cnc23)c2cccc(F)c2n1 | 281 | 25 | 
32 | Nc1nc(C(=O)NCc2cccc3c2NCCC3)c2cccc(F)c2n1 | 213 | 7.6 | 
33 | Nc1nc(C(=O)NCc2cccc3ccccc23)c2cccc(F)c2n1 | 90 | 10.1 | 
34 | Nc1nc(C(=O)NCc2ccnc3ccccc23)c2cccc(F)c2n1 | 10000 | 927 | 
35 | Nc1nc(C(=O)NCc2cccc3c(C(=O)N4CCN(c5ccccc5)CC4)ccnc23)c2cccc(F)c2n1 | 6000 | 1540 | 
36 | Nc1nc(C(=O)NCc2cccc3cccnc23)c2ccccc2n1 | 90 | 1.1 | Papp [8]: 40 ×10⁻⁶ cm/s; hepatocyte CLint [9]: 12.8 µL/min/1e6 cells; solubility [7]: 124 µM (≈ 40.8 µg/mL); hepatocyte CLint [10]: 34.8 µL/min/1e6 cells; fold change (FC) (Cytochrome P450 3A4 [11]): 3; inhibition in vivo at 10 mg/kg (Rattus norvegicus [5]): 35%; fraction unbound [12]: 0.045; concentration at 1 h [13]: 4.2 µM; inhibition in vivo at 30 mg/kg (Rattus norvegicus [3]): 61%; AUC at 1 h [6]: 1.6 µM·h; Ki (Adenosine receptor A2b): 1470 nM; concentration at 1 h [14]: 3.1 µM; Ki (Adenosine receptor A2a [2]; read-out: Ki): 11 nM; Ki (Adenosine receptor A3): 985 nM; half-life [15]: 30 min; fraction unbound [16]: 0.036
37 | Nc1nc(C(=O)NCc2cccc3cccnc23)c2cccc(Cl)c2n1 | 213 |  | inhibition in vivo at 30 mg/kg (Rattus norvegicus [3]): 35%; Ki (Adenosine receptor A2a [2]; read-out: Ki): 2.9 nM
38 | Nc1nc(C(=O)NCc2cccc3c2OCCO3)c2cccc(F)c2n1 | 103 | 20 | 
39 | Nc1nc(C(=O)NCc2cccc3cccnc23)c2cc(F)ccc2n1 | 346 | 4.4 | inhibition in vivo at 10 mg/kg (Rattus norvegicus [5]): 55%; AUC at 1 h [6]: 0.8 µM·h; Ki (Adenosine receptor A2a [2]; read-out: Ki): 8.7 nM
40 | Nc1nc(C(=O)NCc2cccc3cc(C(=O)N4CCCc5ccccc54)cnc23)c2cccc(F)c2n1 | 160 | 4.4 | 
41 | Nc1nc(C(=O)NCc2cccc3cccnc23)c2cccc(F)c2n1 | 12 | 0.5 | inhibition in vivo at 10 mg/kg (Rattus norvegicus [5]): 74%; TDI (Cytochrome P450 3A4 [17]): Not Active; AUC at 1 h [6]: 2.4 µM·h; Ki (Adenosine receptor A2a [2]; read-out: Ki): 1.3 nM; inhibition in vivo at 1 mg/kg (Rattus norvegicus [18]): 30%
42 | Nc1nc(C(=O)NCCc2ccccn2)c2cccc(F)c2n1 | 600 | 14 | 
43 | Nc1nc(C(=O)NCc2cccc3cccnc23)c2cccc(OC(F)(F)F)c2n1 | 20 |  | inhibition in vivo at 30 mg/kg (Rattus norvegicus [3]): 0%; Ki (Adenosine receptor A2a [2]; read-out: Ki): 2.9 nM
44 | N#Cc1cccc2c(C(=O)NCc3cccc4cccnc34)nc(N)nc12 | 337 | 24 | 
45 | Nc1nc(C(=O)NCc2cccc3cccnc23)c2cccc(Br)c2n1 | 10 |  | 
46 | COCCOc1ccc(N2CCN(C(=O)c3cnc4c(CNC(=O)c5nc(N)nc6c(F)cccc56)cccc4c3)CC2)cc1 | 120 | 4.8 | Ki (Adenosine receptor A2a [2]; read-out: Ki): 11.4 nM
47 | Nc1nc(C(=O)NCc2nccc3ccccc23)c2cccc(F)c2n1 | 84 | 6.7 | 
